{
  "source": "patent US20110189319A1",
  "about": "“Lifeforce liquid supplement” (priority 2010, published 2011)",
  "origin": "cited, not measured here",
  "key": {"[1]": {"system": "patients affected by chronic cerebrovasculopathy", "conditions": "1000 mg/day i.m."}, "[2]": {"system": "patients with Alzheimer disease", "conditions": "1,000 mg/day"}, "[3]": {"conditions": "in vivo"}, "[4]": {"system": "AMD patients", "conditions": "10 mg daily, 12 months"}, "[5]": {"system": "lymphocytes", "conditions": "relative to beta-carotene"}, "[6]": {"system": "permanent middle cerebral artery occlusion in rats", "conditions": "rats, 2,3,5-triphenyltetrazolium-chloride staining"}, "[7]": {"conditions": "in vivo", "remark": "listed apart in the source"}, "[8]": {"assay": "not given", "remark": "listed apart in the source"}, "[9]": {"system": "patients suffering from multiple cerebral infarcts"}, "[10]": {"biological_target": "phosphodiesterase (PDE) type-1"}, "[11]": {"system": "patients suffering from mild to moderate dementia", "conditions": "10 or 20 mg three times a day, sixteen weeks"}, "[12]": {"system": "elderly patients with chronic cerebral dysfunction"}, "[13]": {"system": "rat brain synaptosomes"}, "[14]": {"system": "healthy female volunteers", "conditions": "40 mg three times a day, two days"}, "[15]": {"conditions": "oral, healthy male volunteers, PET"}, "[16]": {"system": "herpes virus"}, "[17]": {"system": "exercise capacity", "conditions": "750 mg soybean-derived daily for 10 d"}, "[18]": {"system": "healthy elderly volunteers", "conditions": "100 mg×3/day p.o., 12 weeks"}, "[19]": {"system": "elderly with age-associated memory impairment", "conditions": "in vivo"}, "[20]": {"system": "young adults", "conditions": "300 mg each day for a month, neuroticism scores above the median"}, "[21]": {"system": "women", "conditions": "highest versus least dietary intake"}, "[22]": {"system": "INTERMAP participants"}, "[23]": {"system": "female health professionals", "conditions": "about 262.4 versus 4.4 milligrams per day"}, "[24]": {"conditions": "100 microM, ascorbate/Fe2+ oxidative stress"}, "[25]": {"conditions": "2,038 subjects without hypertension"}, "[26]": {"conditions": "2,238 subjects not using drugs, supplements or special diet"}, "[27]": {"conditions": "high (0.67% kcal) versus lower intake, all participants"}},
  "note": "Like-named read-outs stand apart in the source and are kept apart here.",
  "data": [
    {"molecule": "C[N+](C)(C)CCOP(=O)(O)OP(=O)([O-])OC[C@H]1O[C@@H](n2ccc(N)nc2=O)[C@H](O)[C@@H]1O", "note": "[Citicoline, cytidine 5′-diphosphocholine]", "values": [
      {"measurement": "side-effects", "setting": "[1]", "value": "No side-effects were detected"},
      {"measurement": "tolerability", "setting": "[2]", "value": "well tolerated"},
      {"measurement": "bioavailability", "setting": "in vivo", "value": "greater than 90%"},
      {"measurement": "excreted in feces", "setting": "oral doses, healthy adults", "value": "less than one"},
      {"measurement": "first plasma peak after ingestion", "setting": "oral, biphasic", "value": "one"},
      {"measurement": "second larger plasma peak post-dosing", "setting": "oral, biphasic", "value": 24, "unit": "h"}
    ]},
    {"molecule": "CC1=C[C@H](O)CC(C)(C)[C@H]1/C=C/C(C)=C/C=C/C(C)=C/C=C/C=C(C)/C=C/C=C(C)/C=C/C1=C(C)C[C@@H](O)CC1(C)C", "note": "[Lutein]", "values": [
      {"measurement": "bioavailability", "setting": "[3]", "value": "approximately 70%"},
      {"measurement": "increase in macular pigment density relative to placebo", "setting": "[4]", "value": 50, "unit": "%"},
      {"measurement": "visual function (glare recovery, contrast sensitivity, visual acuity) vs. placebo", "setting": "[4]", "value": "significant improvements"}
    ]},
    {"molecule": "CC(C)=CCC/C(C)=C/C=C/C(C)=C/C=C/C(C)=C/C=C/C=C(C)/C=C/C=C(C)/C=C/C=C(\\C)CCC=C(C)C", "note": "[Lycopene]", "values": [
      {"measurement": "protection of lymphocytes from membrane damage and cell death", "setting": "[5]", "value": "twice as efficiently as beta-carotene"}
    ]},
    {"molecule": "C[C@]12N[C@H](Cc3ccccc31)c1ccccc12", "note": "[MK-801]", "values": [
      {"measurement": "decrease of infarct volume compared to control", "setting": "[6]", "value": 18, "unit": "%"}
    ]},
    {"molecule": "CC(C)=CCC[C@](C)(O[C@@H]1O[C@H](CO[C@@H]2O[C@H](CO)[C@@H](O)[C@H](O)[C@H]2O)[C@@H](O)[C@H](O)[C@H]1O)[C@H]1CC[C@]2(C)[C@@H]1[C@H](O)C[C@@H]1[C@@]3(C)CC[C@H](O[C@@H]4O[C@H](CO)[C@@H](O)[C@H](O)[C@H]4O[C@@H]4O[C@H](CO)[C@@H](O)[C@H](O)[C@H]4O)C(C)(C)[C@@H]3CC[C@]12C", "note": "[Rb1, Ginsenoside Rb1]", "values": [
      {"measurement": "oral bioavailability", "setting": "[7]; po", "value": "low oral bioavailability"}
    ]},
    {"molecule": "CC(C)=CCC[C@](C)(O[C@@H]1O[C@H](CO)[C@@H](O)[C@H](O)[C@H]1O)[C@H]1CC[C@]2(C)[C@@H]1[C@H](O)C[C@@H]1[C@@]3(C)CC[C@H](O)C(C)(C)[C@@H]3[C@@H](O[C@@H]3O[C@H](CO)[C@@H](O)[C@H](O)[C@H]3O)C[C@]12C", "note": "[Rg1, ginsenoside Rg1]", "values": [
      {"measurement": "elimination from the blood", "setting": "[7]", "value": "rapidly eliminated from the blood"}
    ]},
    {"molecule": "CCOC(=O)C1=C[C@]2(CC)CCCN3CCc4c(n1c1ccccc41)[C@@H]32", "note": "[Vinpocetine]", "values": [
      {"measurement": "absorption of an ingested dose", "setting": "[8]; given with food", "value": "up to 60%"},
      {"measurement": "elimination half-life following ingestion", "setting": "[8]; in vivo", "value": "one to two"},
      {"measurement": "levels peak in the bloodstream after ingestion", "setting": "[8]; in vivo", "value": "an hour and a half"},
      {"measurement": "time to peak plasma levels after ingestion", "setting": "[8]; in vivo", "value": "one to one and a half"},
      {"measurement": "absorption of an ingested dose", "setting": "[8]; on an empty stomach", "value": "≥ 7", "unit": "%"},
      {"measurement": "time in which most of a dose is excreted as apovincaminic acid", "setting": "[8]; urine", "value": "≤ 24", "unit": "h"},
      {"measurement": "decrease of infarct volume compared to control", "setting": "[6]", "value": 42, "unit": "%"},
      {"measurement": "side effects", "setting": "[9]; in vivo", "value": "No serious side effect"},
      {"measurement": "digit span backward test", "setting": "[9]; three months", "value": "did not show any significant worsening"},
      {"measurement": "flow velocities after breath holding, acute phase, versus placebo", "setting": "[9]; transcranial Doppler", "value": "significantly lower"},
      {"measurement": "IC50", "setting": "[10]", "value": "~10", "unit": "µM"},
      {"measurement": "cognitive improvement versus placebo", "setting": "[11]", "value": "Statistically significant cognitive improvements"},
      {"measurement": "side effects", "setting": "[11]", "value": "no clinically relevant side effects"},
      {"measurement": "cognitive evaluations versus placebo", "setting": "[12]; 10 mg tid thirty days, then 5 mg tid sixty days", "value": "scored consistently better in all cognitive evaluations"},
      {"measurement": "side effects", "setting": "[12]; ninety-day trial", "value": "No serious side effects"},
      {"measurement": "decrease of DCFH2-DA fluorescence", "setting": "[13]; [24]", "value": "about 50%"},
      {"measurement": "decrease of DHR 123 fluorescence", "setting": "[13]; [24]", "value": "~83", "unit": "%"},
      {"measurement": "ascorbate/Fe2+ stimulated consumption of oxygen and TBARS accumulation", "setting": "[13]; concentration-dependent", "value": "inhibited"},
      {"measurement": "memory versus placebo", "setting": "[14]", "value": "significantly improved"}
    ]},
    {"molecule": "CCOC(=O)C1=C[C@]2(CC)CCCN3CCc4c(n1c1ccccc41)[C@@H]32", "note": "[[11C] vinpocetine]", "values": [
      {"measurement": "average maximum brain uptake", "setting": "[15]", "value": "0.7 % of the administered total dose"}
    ]},
    {"molecule": "COc1ccc2c(=O)oc3c(OC)cc(CCN(C)C)c4c(=O)oc1c2c34", "note": "[taspine]", "values": [
      {"measurement": "activity against herpes virus", "setting": "[16]", "value": "active"}
    ]},
    {"molecule": "Phosphatidylserine", "values": [
      {"measurement": "exercise capacity", "setting": "[17]", "value": "improved exercise capacity"},
      {"measurement": "outcome measures of age related cognitive decline", "setting": "[18]", "value": "significant drug over time effect"},
      {"measurement": "safe dosage for older persons", "setting": "[19]", "value": "≤ 200", "unit": "mg three times daily"},
      {"measurement": "feelings of stress and mood", "setting": "[20]", "value": "feeling less stressed and having a better mood"}
    ]},
    {"molecule": "omega-3 fatty acid", "values": [
      {"measurement": "lower risk of dry eye syndrome", "setting": "[21]", "value": 17, "unit": "%"},
      {"measurement": "average diastolic reduction", "setting": "[22]; [25]", "value": 0.92, "unit": "mm Hg"},
      {"measurement": "average systolic reduction", "setting": "[22]; [25]", "value": 0.91, "unit": "mm Hg"},
      {"measurement": "reduction in diastolic blood pressure", "setting": "[22]; [26]", "value": 0.98, "unit": "mm Hg"},
      {"measurement": "reduction in systolic blood pressure", "setting": "[22]; [26]", "value": 1.01, "unit": "mm Hg"},
      {"measurement": "lower average diastolic blood pressure", "setting": "[22]; [27]", "value": 0.57, "unit": "mm Hg"},
      {"measurement": "lower average systolic blood pressure", "setting": "[22]; [27]", "value": 0.55, "unit": "mm Hg"}
    ]},
    {"molecule": "vitamin E", "values": [
      {"measurement": "less likely to develop cataracts", "setting": "[23]", "value": 14, "unit": "%"}
    ]}
  ]
}
